Measurements from publication PMC3582829 (European journal of medicinal chemistry, 2012).
Where two headings read alike, the source gives them in different places.

Columns and labels:
T. cruzi amastigotes [1] = assay: T. cruzi amastigote assay in Vero cells; type: cell-based, Trypanosoma cruzi; conditions: intracellular T. cruzi
TcFPPS = TcFPPS (Trypanosoma cruzi, UniProt Q8WS26); type: biochemical
T. cruzi amastigotes [2] = conditions: positive control; cited from earlier work
T. gondii tachyzoites = conditions: positive control, cited from earlier work

Row | SMILES | activity against T. cruzi amastigotes (in words) (T. cruzi amastigotes [1]) | activity towards TcFPPS (in words) (TcFPPS) | ED50 T. cruzi amastigotes (T. cruzi amastigotes [2]) | ED50 T. gondii (T. gondii tachyzoites; listed as risedronate) | ED50 T. gondii (T. gondii tachyzoites)
1 | CCCCCCCSCC(P(=O)(O)O)P(=O)(O)O [Compound 36, 1-[(n-Heptylthio)ethyl]-1,1-bisphosphonic Acid] | devoid of anti-T. cruzi activity | devoid of anti-T. cruzi activity | – | – | –
2 | O=P(O)(O)C(O)(Cc1cccnc1)P(=O)(O)O [Risedronate, risedronate] | – | – | 55.0 ± 5.0 [68] μM | 2.4 µM | 2.4 ± 0.7 [29] μM
3 | CCCCCCCNCC(O)(P(=O)(O)O)P(=O)(O)O [Compound 21, 1-[(n-Heptylamino)ethyl]-1-hydroxy-1,1-bisphosphonic Acid] | almost devoid of antiparasitic activity | almost devoid of antiparasitic activity | – | – | –
4 | CCCCCC(C)NCC(P(=O)(O)O)P(=O)(O)O (stereo not drawn) [Compound 18, 1-[(n-Hept-2-ylamino)ethyl] 1,1-bisphosphonic Acid] | almost devoid of antiparasitic activity | almost devoid of antiparasitic activity | – | – | –
